Source: patent US7772241B2, “Variolin derivatives and their use as antitumor agents” (Pharma Mar S.A., priority 2001, dated 2010)
Like-named read-outs stand apart in the source and are kept apart here. Values belong to the compound of their own block, whether it stands above or below them.

Legend:
HT-29 = assay: Inhibition of cells growth by colorimetric (SRB) assay, HT-29; conditions: for GI50 / CC50: Homo sapiens, HT-29, 48 h
Procedure, shortened: (§1)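 Human tumour cells in RPMI 1640 with 10% FBS were seeded at 5×10^3 cells/well, allowed to attach for 18 h, then exposed to samples at 10 to 10^−8 μg/ml for 48 h. Growth was measured by SRB staining after TCA fixation, with absorbance read at 490 nm in triplicate wells.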

A-549 = assay: Inhibition of cells growth by colorimetric (SRB) assay, A-549; conditions: for GI50 / CC50: Homo sapiens, A549, 48 h
Procedure, shortened: as §1

[1] = Inhibition of cells growth by colorimetric (SRB) assay, HMEC1; conditions: human, HMEC1 cells, 48 hours exposure
HMEC1 = assay: as above; conditions: for GI50: Homo sapiens, HMEC-1, 48 h; for H-MEC-1 TGI / TGI H-MEC-1: SRB assay, 48 hours exposure, in M (unit assumed)
[2] = read-out: HT-29 GI50, SRB assay, 48 hours exposure
[3] = read-out: HT-29 LC50, SRB assay, 48 hours exposure
[4] = read-out: A-549 GI50, SRB assay, 48 hours exposure
[5] = read-out: A-549 LC50, SRB assay, 48 hours exposure
[6] = read-out: H-MEC-1 GI50, SRB assay, 48 hours exposure
[7] = read-out: GI50 A-549, SRB assay, 48 hours exposure
[8] = read-out: GI50 H-MEC-1, SRB assay, 48 hours exposure

SMILES: CSc1nccc2c(-c3cccc([N+](=O)[O-])c3)c3cccnc3n12 [Compound 59]
GI50 (HT-29; [2]): 29.7 µM
CC50 (HT-29; [3]): 29.7 µM
HT-29 TGI (HT-29; SRB assay, 48 hours exposure): 2.97E−05
GI50 (A-549; [4]): 29.7 µM
CC50 (A-549; [5]): 29.7 µM
A-549 TGI (A-549; SRB assay, 48 hours exposure): 2.97E−05
CC50 at 48 h ([1]; H-MEC-1 LC50, SRB assay): 29.7 µM
GI50 (HMEC1; [6]): 29.7 µM
H-MEC-1 TGI (HMEC1): 2.97E−05

SMILES: Nc1nccc2c(-c3ccccc3)c3cccnc3n12 [Compound 63]
GI50 (HT-29; [2]): ≥ 38.4 µM
CC50 (HT-29; [3]): ≥ 38.4 µM
HT-29 TGI (HT-29; SRB assay, 48 hours exposure): 3.84E−05
GI50 (A-549; [4]): ≥ 38.4 µM
CC50 (A-549; [5]): ≥ 38.4 µM
A-549 TGI (A-549; SRB assay, 48 hours exposure): 3.84E−05
CC50 at 48 h ([1]; H-MEC-1 LC50, SRB assay): ≥ 38.4 µM
GI50 (HMEC1; [6]): ≥ 38.4 µM
H-MEC-1 TGI (HMEC1): 3.84E−05

SMILES: Nc1nccc2c(-c3ccncn3)c3cccnc3n12 [Compound 70]
GI50 (HT-29; [2]): 0.0381 µM
CC50 (HT-29; [3]): 38.1 µM
HT-29 TGI (HT-29; SRB assay, 48 hours exposure): 3.81E−06
GI50 (A-549; [4]): 0.182 µM
CC50 (A-549; [5]): 3.35 µM
A-549 TGI (A-549; SRB assay, 48 hours exposure): 5.60E−07
CC50 at 48 h ([1]; H-MEC-1 LC50, SRB assay): 4 µM
GI50 (HMEC1; [6]): 0.119 µM
H-MEC-1 TGI (HMEC1): 3.93E−07

The next lines start with results.

GI50 (HT-29; [2]): 30.6 µM
GI50 (A-549; [7]): 30.6 µM
SMILES: COc1cccc(-c2c3cccnc3n3c(N)nccc23)c1.Cl [Compound 67]
CC50 (HT-29; [3]): 30.6 µM
HT-29 TGI (HT-29; SRB assay, 48 hours exposure): 3.06E−05
CC50 (A-549; [5]): 30.6 µM
A-549 TGI (A-549; SRB assay, 48 hours exposure): 3.06E−05
CC50 at 48 h ([1]; LC50 H-MEC-1, SRB assay): 30.6 µM
GI50 (HMEC1; [8]): 30.6 µM
TGI H-MEC-1 (HMEC1): 3.06E−05

GI50 (HT-29; [2]): 5.79 µM
GI50 (A-549; [4]): 4.2 µM
SMILES: Cc1nccc(-c2c3cccnc3n3c(N)nccc23)n1 [Compound 75]
CC50 (HT-29; [3]): 36.2 µM
HT-29 TGI (HT-29; SRB assay, 48 hours exposure): 3.62E−05
CC50 (A-549; [5]): 21.3 µM
A-549 TGI (A-549; SRB assay, 48 hours exposure): 9.45E−06
CC50 at 48 h ([1]; H-MEC-1 LC50, SRB assay): 36.2 µM
GI50 (HMEC1; [6]): 1.43 µM
H-MEC-1 TGI (HMEC1): 8.00E−06

GI50 (HT-29; read-out: GI50 HT-29, SRB assay, 48 hours exposure): 26.7 µM
GI50 (A-549; [7]): 26.7 µM
SMILES: CSc1nccc(-c2c3c(Cl)ccnc3n3c(SC)nccc23)n1 [Compound 84]
CC50 (HT-29; read-out: LC50 HT-29, SRB assay, 48 hours exposure): 26.7 µM
TGI HT-29 (HT-29; SRB assay, 48 hours exposure): 2.67E−05
CC50 (A-549; read-out: LC50 A-549, SRB assay, 48 hours exposure): 26.7 µM
TGI A-549 (A-549; SRB assay, 48 hours exposure): 2.67E−05
CC50 at 48 h ([1]; LC50 H-MEC-1, SRB assay): 26.7 µM
GI50 (HMEC1; [8]): 26.7 µM
TGI H-MEC-1 (HMEC1): 2.67E−05
